# Test results reported in PubChem BioAssay (NCI).
#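 Five compound concentrations were applied to cells in 96-well plates for 48 hours; endpoints were derived by simple linear interpolation of the resulting dose-response curve. At the GI50, growth is halved. Definition used: TGI = concentration required for complete inhibition of growth.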
# Columns and labels:
# Assay in all cases: DTP human tumour cell line panel, 48 h
# MOLT-4 leukemia = test system: MOLT-4 leukemia
# DU-145 prostate = test system: DU-145 prostate
# COLO 205 colon = test system: COLO 205 colon
# PC-3 prostate = test system: PC-3 prostate
# CCRF-CEM leukemia = test system: CCRF-CEM leukemia
# SN12C renal = test system: SN12C renal
# A498 renal = test system: A498 renal
# UO-31 renal = test system: UO-31 renal
# OVCAR-4 ovarian = test system: OVCAR-4 ovarian
# 786-0 renal = test system: 786-0 renal
Structure (SMILES),GI50 (MOLT-4 leukemia),TGI (MOLT-4 leukemia),GI50 (DU-145 prostate),TGI (DU-145 prostate),GI50 (COLO 205 colon),TGI (COLO 205 colon),GI50 (PC-3 prostate),TGI (PC-3 prostate),GI50 (CCRF-CEM leukemia),TGI (CCRF-CEM leukemia),GI50 (SN12C renal),TGI (SN12C renal),GI50 (A498 renal),TGI (A498 renal),GI50 (UO-31 renal),TGI (UO-31 renal),GI50 (OVCAR-4 ovarian),TGI (OVCAR-4 ovarian),GI50 (786-0 renal),TGI (786-0 renal)
CC1(C)N=C(N)N=C(N)N1c1ccc(CCC(=O)Nc2ccc(S(=O)(=O)F)cc2)cc1,4.62 µM,> 100 µM,0.871 µM,> 100 µM,0.922 µM,> 100 µM,0.0593 µM,> 72.1 µM,0.73 µM,> 100 µM,1.59 µM,> 100 µM,5.99 µM,> 100 µM,34.1 µM,> 100 µM,> 78.5 µM,> 100 µM,0.529 µM,> 100 µM
Cc1ccc2c(-c3ccnc(Nc4ccc5c(c4)OCCO5)n3)c(-c3ccc(C(F)(F)F)cc3)nn2n1,6.89 µM,> 25 µM,> 20.6 µM,> 25 µM,3.17 µM,> 25 µM,10.1 µM,> 25 µM,11.7 µM,> 25 µM,5.26 µM,> 25 µM,2.13 µM,18 µM,2.41 µM,> 25 µM,8.59 µM,> 25 µM,> 21.3 µM,> 25 µM
CCN(C)c1nc(N(C)CC)c2nc(N(C)CC)nc(N(C)CC)c2n1,–,> 100 µM,–,> 100 µM,–,> 100 µM,–,> 100 µM,–,> 100 µM,–,> 100 µM,–,> 100 µM,–,> 100 µM,–,> 100 µM,–,> 100 µM
CCn1cc(C(=O)O)c(=O)c2cc(F)c(N3CCN(S(=O)(=O)c4cccc5ccccc45)CC3)cc21,4.46 µM,> 100 µM,3.97 µM,> 100 µM,2.02 µM,3.91 µM,2.66 µM,> 100 µM,3.67 µM,> 100 µM,2.59 µM,> 100 µM,2.74 µM,> 100 µM,2.21 µM,8.95 µM,2.6 µM,> 100 µM,4.5 µM,20.9 µM
Cn1c([N+](=O)[O-])cnc1C=C1C(=O)c2ccccc2C1=O,3.68 µM,17.6 µM,6.45 µM,19.6 µM,4.83 µM,15.9 µM,8.89 µM,28.5 µM,1.85 µM,6.53 µM,3.83 µM,16.1 µM,7.05 µM,22.6 µM,3.83 µM,16.2 µM,6.36 µM,55.4 µM,5.18 µM,28.3 µM
CC(=O)ON1CCCC(P(=O)(OCOC(=O)C(C)(C)C)OCOC(=O)C(C)(C)C)C1=O (stereo not given),0.511 µM,3.65 µM,1.47 µM,17.4 µM,0.925 µM,5.71 µM,1.23 µM,17.4 µM,0.125 µM,7.81 µM,0.314 µM,2.38 µM,0.314 µM,2.01 µM,0.337 µM,2.68 µM,1.19 µM,13.5 µM,0.331 µM,> 23.4 µM
CNC(=O)c1ncccc1Nc1nc(Nc2cc3c(cc2OC)CCCN3C(=O)CN(C)C)nc2[nH]ccc12,1.05 µM,5.76 µM,0.753 µM,3.02 µM,0.127 µM,1.18 µM,1.5 µM,8.03 µM,0.568 µM,2.96 µM,3.36 µM,7.37 µM,1.18 µM,5.46 µM,2.71 µM,6.45 µM,2.98 µM,6.67 µM,3.23 µM,7.02 µM
N#CC1(c2ccc(NC(=O)c3cccnc3NCc3ccncc3)cc2)CCCC1,6.26 µM,31.9 µM,18.8 µM,> 100 µM,7.43 µM,33.5 µM,15.5 µM,> 64.3 µM,12.9 µM,> 95 µM,18 µM,> 100 µM,10.2 µM,60.9 µM,12.6 µM,60.7 µM,13.2 µM,98.5 µM,14.5 µM,49.6 µM
CN[C@@H](C)C(=O)N[C@H]1CN(S(=O)(=O)c2cccc(S(=O)(=O)N3CC[C@H]4CC[C@@H](C(=O)NC(c5ccccc5)c5ccccc5)N4C(=O)[C@@H](NC(=O)[C@H](C)NC)C3)c2)CC[C@H]2CC[C@@H](C(=O)NC(c3ccccc3)c3ccccc3)N2C1=O,47 µM,> 100 µM,15.1 µM,28.3 µM,15.3 µM,35.2 µM,21.5 µM,> 63.3 µM,1.85 µM,> 100 µM,16.6 µM,36 µM,32.6 µM,> 67.7 µM,> 73 µM,> 100 µM,0.0187 µM,0.128 µM,20 µM,43.8 µM
O=C1C=C[C@H](O)[C@@]2(CO)O[C@@H]12,2.99 µM,16.5 µM,14.3 µM,27.4 µM,1.84 µM,3.55 µM,16.3 µM,39.5 µM,2.7 µM,12.3 µM,8.53 µM,22.4 µM,18.4 µM,45.4 µM,10.4 µM,24 µM,13 µM,29.4 µM,16.4 µM,30 µM
O=C(Nc1cccc(-n2cc(-c3ccncc3)c(-c3cc(O)cc(Cl)c3)n2)c1)c1ccc(N2CCOCC2)c(C(F)(F)F)c1,1.11 µM,4.38 µM,5.65 µM,> 100 µM,17.5 µM,64.5 µM,1.09 µM,45.6 µM,0.543 µM,> 100 µM,6.37 µM,> 100 µM,19.4 µM,73.2 µM,1.41 µM,15.5 µM,> 100 µM,> 100 µM,2.24 µM,10.1 µM
CCNc1nc(O)c(/C=C2\C=Nc3ncccc32)s1,3.21 µM,12.6 µM,3.25 µM,47.4 µM,3.54 µM,13 µM,4.04 µM,> 100 µM,3.59 µM,> 100 µM,3.58 µM,37.5 µM,2.12 µM,6.15 µM,3.44 µM,> 100 µM,3.08 µM,> 100 µM,2.71 µM,> 100 µM
O=C1/C(=C\c2ccccc2)CN(C(=O)CCN2CCCCC2)C/C1=C/c1ccccc1,–,0.714 µM,–,17.9 µM,–,3.83 µM,–,3.25 µM,–,0.866 µM,–,2.48 µM,–,7.43 µM,–,4.56 µM,–,4.34 µM,–,4.7 µM
Cc1ccc(O)cc1Nc1ccnc2ccc(S(C)(=O)=O)cc12,> 19.8 µM,> 25 µM,7.23 µM,> 20.4 µM,0.47 µM,2.83 µM,4.2 µM,> 25 µM,> 25 µM,> 25 µM,2.82 µM,> 25 µM,1.75 µM,6.18 µM,0.496 µM,4.81 µM,> 25 µM,> 25 µM,1.87 µM,> 25 µM
O=C(/C=C/C12c3ccccc3C(c3ccccc31)C1C(=O)NC(=O)C12)c1ccccn1 (stereo not given),2.11 µM,9.55 µM,1.02 µM,2.21 µM,1.88 µM,3.62 µM,1.67 µM,4.46 µM,1.44 µM,9.92 µM,1.48 µM,3.44 µM,1.66 µM,3.15 µM,1.32 µM,2.74 µM,2.69 µM,11.7 µM,1.74 µM,4 µM
CCN1C(=S)N(CC)C2C1NC(=S)N2/N=C/C=C/c1ccccc1OC (stereo not given),0.464 µM,> 54.7 µM,0.354 µM,25.3 µM,0.312 µM,1.27 µM,0.29 µM,> 100 µM,0.346 µM,> 100 µM,0.67 µM,24.8 µM,0.0831 µM,0.715 µM,0.621 µM,> 93 µM,1.1 µM,> 100 µM,0.67 µM,> 52.3 µM
Nc1nc2c(c3cnccc13)C(c1ccc(Cl)c(Cl)c1)Cc1cnccc1-2 (stereo not given),0.48 µM,5.48 µM,0.615 µM,11.2 µM,0.356 µM,1.09 µM,0.544 µM,12.8 µM,0.388 µM,12.6 µM,1.18 µM,6.68 µM,0.227 µM,1.01 µM,1.54 µM,6.72 µM,4.28 µM,25.1 µM,0.565 µM,3.9 µM
CCn1c2c(c3ccccc3c1=O)C(=O)c1ccccc1-2,–,> 100 µM,–,> 100 µM,–,> 100 µM,–,> 100 µM,–,> 100 µM,–,> 100 µM,–,> 100 µM,–,> 100 µM,–,> 100 µM,–,> 100 µM
c1ccc(-c2[nH]ncc2-c2ccnc(-c3ccc(OCCn4ccnc4)cc3)c2)nc1,10 µM,> 25 µM,> 25 µM,> 25 µM,> 25 µM,> 25 µM,13.2 µM,> 25 µM,17.3 µM,> 25 µM,> 25 µM,> 25 µM,> 25 µM,> 25 µM,6.57 µM,> 25 µM,16.1 µM,> 25 µM,> 25 µM,> 25 µM
